# Assays:
# [1] = system: highly resistant strains of Pseudomonas aeruginosa; assay: MIC determination, all strains; assay type: cell-based; details: when used alone; highly resistant strains of P. aeruginosa
# Procedure: (§1) The antibacterial activity of combinations according to the invention against resistant bacterial strains was investigated. Minimum Inhibitory Concentration (MIC) determination for the combinations according to invention was carried out in Muller Hinton Agar (MHA) (BD, USA) according to Clinical and Laboratory Standards Institute (CLSI) recommendations, (Clinical and Laboratory Standards Institute (CLSI), Performance Standards for Antimicrobial Susceptibility Testing, 20th Informational Supplement, M 100-S20, Volume 30, No. 1, 2010). In short, the test strains were adjusted to deliver about 10^4 CFU per spot with a multipoint inoculator (Applied Quality Services, UK). The plates were pored with MHA containing doubling concentration range of the test combinations according to invention. The plates were inoculated and were incubated at 35° C. for 18 hours.
# The results on antibacterial activity of a carbapenem antibacterial agent selected from imipenem, meropenem, ertapenem and doripenem alone and in combination with Compound A or Compound B, against highly resistant strains of Pseudomonas aeruginosa are given in Table 1. […] For example, P. aeruginosa 2779 harbors resistance due to increased AmpC expression (300 times) and increased efflux; P. aeruginosa 1405 harbors resistance due to increased AmpC expression (600 times), reduced OprD expression and increased efflux; P. aeruginosa R 70 harbors resistance due to reduced OprD expression and increased efflux; and P. aeruginosa J 154 harbors resistance due to reduced OprD.
# [2] = system: Pseudomonas aeruginosa R70; assay: Time kill study; assay type: cell-based; details: P. aeruginosa R70; for effect on bacterial counts through out the duration of the study (in words): when used alone
# Procedure: (§2) The synergistic killing effect of the combinations according to invention was studied by performing time kill studies. In a typical time kill study, the freshly grown cultures were diluted to the required cell density (initial starting inoculum) in Cation adjusted Muller Hinton broth medium (BD, USA). The antibacterial agents (either alone or in combination) at the required concentrations were added into the culture-containing medium. The samples were incubated under shaking condition (120 rpm) at 37° C. Enumeration of viable bacterial count was done every 2 hour by diluting in normal saline and plating on to the Tryptic Soya Agar plates (BD, USA). The plates were incubated for 24 hours to arrive at the viable bacterial count. The results are expressed in terms of Log10 CFU per ml. In general, the decrease of 1 Log10 CFU/ml, corresponds to 90% killing of bacteria.
# [3] = system: Pseudomonas aeruginosa 1405; assay: Time kill study; assay type: cell-based; details: P. aeruginosa 1405; for effect on bacterial counts through out the duration of the study (in words): when used alone
# Procedure: as §2
# [4] = system: P. aeruginosa R 70; assay: MIC determination in Muller Hinton Agar (CLSI); assay type: cell-based, Pseudomonas aeruginosa; details: Pseudomonas aeruginosa, R70, 18 h; agent alone; P. aeruginosa R 70 [Reduced OprD + increased efflux]
# Procedure: as §1
# [5] = system: P. aeruginosa J 154; assay: MIC determination in Muller Hinton Agar (CLSI); assay type: cell-based, Pseudomonas aeruginosa; details: Pseudomonas aeruginosa, J154; agent alone; P. aeruginosa J 154 [Reduced OprD]
# Procedure: as §1
structure (smiles),measurement,setting,value
"O=C(NNC(=O)[C@@H]1CC[C@@H]2CN1C(=O)N2OS(=O)(=O)O)[C@@H]1CCCNC1 [Compound A, trans-sulfuric acid mono-[2-(N′-[(R)-piperidin-3-carbonyl]-hydrazinocarbonyl)-7-oxo-1,6-diaza-bicyclo[3.2.1]oct-6-yl]ester]",MIC values (in words),[1],higher MIC values
same,effect on bacterial counts through out the duration of the study (in words),[2],failed to reduce the bacterial counts
same,Bacterial count (Log10 CFU/ml) 0 hour,"[2]; Table 4, single agent 4 mcg/ml",6.62 Log10 CFU/ml
same,Bacterial count (Log10 CFU/ml) 2 hour,"[2]; Table 4, single agent 4 mcg/ml",7.07 Log10 CFU/ml
same,Bacterial count (Log10 CFU/ml) 4 hour,"[2]; Table 4, single agent 4 mcg/ml",8.35 Log10 CFU/ml
same,Bacterial count (Log10 CFU/ml) 6 hour,"[2]; Table 4, single agent 4 mcg/ml",8.48 Log10 CFU/ml
same,Bacterial count (Log10 CFU/ml) 0 hour,"[2]; Table 4, single agent 8 mcg/ml",6.62 Log10 CFU/ml
same,Bacterial count (Log10 CFU/ml) 2 hour,"[2]; Table 4, single agent 8 mcg/ml",6.9 Log10 CFU/ml
same,Bacterial count (Log10 CFU/ml) 4 hour,"[2]; Table 4, single agent 8 mcg/ml",7.11 Log10 CFU/ml
same,Bacterial count (Log10 CFU/ml) 6 hour,"[2]; Table 4, single agent 8 mcg/ml",7.16 Log10 CFU/ml
same,effect on bacterial counts through out the duration of the study (in words),[3],failed to reduce the bacterial counts
same,Bacterial count (Log10 CFU/ml) 0 hour,"[3]; Table 2, single agent 4 mcg/ml",6.84 Log10 CFU/ml
same,Bacterial count (Log10 CFU/ml) 2 hour,"[3]; Table 2, single agent 4 mcg/ml",6.81 Log10 CFU/ml
same,Bacterial count (Log10 CFU/ml) 4 hour,"[3]; Table 2, single agent 4 mcg/ml",7.84 Log10 CFU/ml
same,Bacterial count (Log10 CFU/ml) 6 hour,"[3]; Table 2, single agent 4 mcg/ml",8.06 Log10 CFU/ml
same,Bacterial count (Log10 CFU/ml) 0 hour,"[3]; Table 2, single agent 8 mcg/ml",6.84 Log10 CFU/ml
same,Bacterial count (Log10 CFU/ml) 2 hour,"[3]; Table 2, single agent 8 mcg/ml",6.48 Log10 CFU/ml
same,Bacterial count (Log10 CFU/ml) 4 hour,"[3]; Table 2, single agent 8 mcg/ml",7.4 Log10 CFU/ml
same,Bacterial count (Log10 CFU/ml) 6 hour,"[3]; Table 2, single agent 8 mcg/ml",7.54 Log10 CFU/ml
same,MIC,[4],8 µg/mL
same,MIC,[5],16 µg/mL
"O=C(NNC(=O)[C@@H]1CC[C@@H]2CN1C(=O)N2OS(=O)(=O)O)[C@@H]1CCNC1 [Compound B, trans-sulfuric acid mono-[2-(N′-[(R)-pyrrolidin-3-carbonyl]-hydrazinocarbonyl)-7-oxo-1,6-diaza-bicyclo[3.2.1]oct-6-yl]ester]",MIC values (in words),[1],higher MIC values
same,effect on bacterial counts through out the duration of the study (in words),[2],failed to reduce the bacterial counts
same,Bacterial count (Log10 CFU/ml) 0 hour,"[2]; Table 5, single agent 2 mcg/ml",6.44 Log10 CFU/ml
same,Bacterial count (Log10 CFU/ml) 2 hour,"[2]; Table 5, single agent 2 mcg/ml",7.11 Log10 CFU/ml
same,Bacterial count (Log10 CFU/ml) 4 hours,"[2]; Table 5, single agent 2 mcg/ml",7.3 Log10 CFU/ml
same,Bacterial count (Log10 CFU/ml) 6 hour,"[2]; Table 5, single agent 2 mcg/ml",7.6 Log10 CFU/ml
same,Bacterial count (Log10 CFU/ml) 0 hour,"[2]; Table 5, single agent 4 mcg/ml",6.44 Log10 CFU/ml
same,Bacterial count (Log10 CFU/ml) 2 hour,"[2]; Table 5, single agent 4 mcg/ml",6.2 Log10 CFU/ml
same,Bacterial count (Log10 CFU/ml) 4 hours,"[2]; Table 5, single agent 4 mcg/ml",6.4 Log10 CFU/ml
same,Bacterial count (Log10 CFU/ml) 6 hour,"[2]; Table 5, single agent 4 mcg/ml",6.0 Log10 CFU/ml
same,effect on bacterial counts through out the duration of the study (in words),[3],failed to reduce the bacterial counts
same,Bacterial count (Log10 CFU/ml) 0 hour,"[3]; Table 3, single agent 2 mcg/ml",6.81 Log10 CFU/ml
same,Bacterial count (Log10 CFU/ml) 2 hour,"[3]; Table 3, single agent 2 mcg/ml",6.48 Log10 CFU/ml
same,Bacterial count (Log10 CFU/ml) 4 hour,"[3]; Table 3, single agent 2 mcg/ml",7.6 Log10 CFU/ml
same,Bacterial count (Log10 CFU/ml) 6 hour,"[3]; Table 3, single agent 2 mcg/ml",7.5 Log10 CFU/ml
same,Bacterial count (Log10 CFU/ml) 0 hour,"[3]; Table 3, single agent 4 mcg/ml",6.81 Log10 CFU/ml
same,Bacterial count (Log10 CFU/ml) 2 hour,"[3]; Table 3, single agent 4 mcg/ml",6.54 Log10 CFU/ml
same,Bacterial count (Log10 CFU/ml) 4 hour,"[3]; Table 3, single agent 4 mcg/ml",6.65 Log10 CFU/ml
same,Bacterial count (Log10 CFU/ml) 6 hour,"[3]; Table 3, single agent 4 mcg/ml",6.7 Log10 CFU/ml
same,MIC,[4],2 µg/mL
same,MIC,[5],8 µg/mL
